{"source": "patent US9980943B2", "about": "“Methods of treating muscular dystrophy” (BOARD OF REGENTS OF THE NEVADA SYSTEM OF HIGHER EDUCATION, …, priority 2013, dated 2018)", "format_in_all_cases": "cell-based, mouse", "key": {"[1]": {"system": "β-galactosidase in CMV-LacZ C2C12 myotubes", "experiment": "CMV-LacZ secondary screen in C2C12 myotubes (β-Gal stabilizing assay)", "details": "C2C12 CMV-LacZ myotubes, fold relative to DMSO", "summary_of_the_method": "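β-Gal level was the read-out, measured in a clonal C2C12 line expressing LacZ from a CMV promoter. Dose-response curves used six concentrations, 0.5 μM up to 40 μM, with duplicate points.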"}, "[2]": {"system": "α7 integrin (LacZ reporter in α7+/LacZ myotubes)", "experiment": "Myotube α7 integrin FDG assay (Burkin assay in myotubes, 96-well)", "details": "myotubes"}, "[3]": {"system": "α7 integrin (LacZ reporter in α7βgal+/− myoblasts)", "experiment": "Myoblast α7+/LacZ integrin FDG assay (Burkin assay in myoblasts, 96-well)", "details": "α7+/LacZ myoblasts, 96-well"}}}
{"smiles": "O=C(O)c1cc(-c2ccccc2Cl)n(-c2cccc(Cl)c2)n1", "note": "[MLS001166325-01]", "values": [{"measurement": "CMV-LACZ in Myotubes, signal relative to DMSO", "setting": "[1]; 5 uM", "value": 0.7726}, {"measurement": "CMV-LACZ in Myotubes, signal relative to DMSO", "setting": "[1]; 10 uM", "value": 0.9795}, {"measurement": "CMV-LACZ in Myotubes, signal relative to DMSO", "setting": "[1]; 20 uM", "value": 0.8969}, {"measurement": "CMV-LACZ in Myotubes, signal relative to DMSO", "setting": "[1]; 40 uM", "value": 0.8785}, {"measurement": "Burkin Assay in Myotubes (signal relative to DMSO)", "setting": "[2]; 0.5 uM", "value": 1.057}, {"measurement": "Burkin Assay in Myotubes (signal relative to DMSO)", "setting": "[2]; 1 uM", "value": 1.049}, {"measurement": "Burkin Assay in Myotubes (signal relative to DMSO)", "setting": "[2]; 5 uM", "value": 1.112}, {"measurement": "Burkin Assay in Myotubes (signal relative to DMSO)", "setting": "[2]; 10 uM", "value": 1.065}, {"measurement": "Burkin Assay in Myotubes (signal relative to DMSO)", "setting": "[2]; 20 uM", "value": 0.9593}, {"measurement": "Burkin Assay in Myotubes (signal relative to DMSO)", "setting": "[2]; 40 uM", "value": 1.0054}, {"measurement": "Burkin Assay in Myoblasts, value relative to DMSO", "setting": "[3]; 0.5 uM", "value": 1.017}, {"measurement": "Burkin Assay in Myoblasts, value relative to DMSO", "setting": "[3]; 1 uM", "value": 0.9268}, {"measurement": "Burkin Assay in Myoblasts, value relative to DMSO", "setting": "[3]; 5 uM", "value": 0.9487}, {"measurement": "Burkin Assay in Myoblasts, value relative to DMSO", "setting": "[3]; 10 uM", "value": 0.9453}, {"measurement": "Burkin Assay in Myoblasts, value relative to DMSO", "setting": "[3]; 20 uM", "value": 0.9772}, {"measurement": "Burkin Assay in Myoblasts, value relative to DMSO", "setting": "[3]; 40 uM", "value": 1.032}]}
{"smiles": "Cc1ccc(OCC(=O)N2CCN(S(=O)(=O)c3ccc4c(c3)OCCO4)CC2)c(C)c1", "note": "[MLS002158881-01]", "values": [{"measurement": "fold induction at 5 µM", "setting": "[1]; Mus musculus, C2C12, read-out: CMV-LACZ in Myotubes, signal relative to DMSO, 5 uM", "value": 0.792}, {"measurement": "fold induction at 10 µM", "setting": "[1]; Mus musculus, C2C12, read-out: CMV-LACZ in Myotubes, signal relative to DMSO, 10 uM", "value": 0.827}, {"measurement": "fold induction at 20 µM", "setting": "[1]; Mus musculus, C2C12, read-out: CMV-LACZ in Myotubes, signal relative to DMSO, 20 uM", "value": 0.864}, {"measurement": "fold induction at 40 µM", "setting": "[1]; Mus musculus, C2C12, read-out: CMV-LACZ in Myotubes, signal relative to DMSO, 40 uM", "value": 0.81}, {"measurement": "fold induction at 0.5 µM", "setting": "[2]; Mus musculus, Myotube, 0.5 uM, read-out: Burkin Assay in Myotubes, α7 integrin LacZ reporter signal relative to DMSO", "value": 0.896}, {"measurement": "fold induction at 1 µM", "setting": "[2]; Mus musculus, Myotube, 1 uM, read-out: Burkin Assay in Myotubes, α7 integrin LacZ reporter signal relative to DMSO", "value": 0.865}, {"measurement": "fold induction at 5 µM", "setting": "[2]; Mus musculus, Myotube, 5 uM, read-out: Burkin Assay in Myotubes, α7 integrin LacZ reporter signal relative to DMSO", "value": 0.67}, {"measurement": "fold induction at 10 µM", "setting": "[2]; Mus musculus, Myotube, 10 uM, read-out: Burkin Assay in Myotubes, α7 integrin LacZ reporter signal relative to DMSO", "value": 0.773}, {"measurement": "fold induction at 20 µM", "setting": "[2]; Mus musculus, Myotube, 20 uM, read-out: Burkin Assay in Myotubes, α7 integrin LacZ reporter signal relative to DMSO", "value": 1.2}, {"measurement": "fold induction at 40 µM", "setting": "[2]; Mus musculus, Myotube, 40 uM, read-out: Burkin Assay in Myotubes, α7 integrin LacZ reporter signal relative to DMSO", "value": 1}, {"measurement": "fold induction at 0.5 µM", "setting": "[3]; Mus musculus, Myoblast, 48 h, 0.5 uM, read-out: Burkin Assay in Myoblasts, signal relative to DMSO", "value": 0.888}, {"measurement": "fold induction at 1 µM", "setting": "[3]; Mus musculus, Myoblast, 48 h, 1 uM, read-out: Burkin Assay in Myoblasts, signal relative to DMSO", "value": 0.838}, {"measurement": "fold induction at 5 µM", "setting": "[3]; Mus musculus, Myoblast, 48 h, 5 uM, read-out: Burkin Assay in Myoblasts, signal relative to DMSO", "value": 0.989}, {"measurement": "fold induction at 10 µM", "setting": "[3]; Mus musculus, Myoblast, 48 h, 10 uM, read-out: Burkin Assay in Myoblasts, signal relative to DMSO", "value": 1.02}, {"measurement": "fold induction at 20 µM", "setting": "[3]; Mus musculus, Myoblast, 48 h, 20 uM, read-out: Burkin Assay in Myoblasts, signal relative to DMSO", "value": 1.12}, {"measurement": "fold induction at 40 µM", "setting": "[3]; Mus musculus, Myoblast, 48 h, 40 uM, read-out: Burkin Assay in Myoblasts, signal relative to DMSO", "value": 1.21}]}
{"smiles": "COC(=O)c1ccccc1NC(=O)c1cc[n+]([O-])cc1", "note": "[MLS001167169-01]", "values": [{"measurement": "CMV-LACZ in Myotubes, signal relative to DMSO", "setting": "[1]; 5 uM", "value": 0.9323}, {"measurement": "CMV-LACZ in Myotubes, signal relative to DMSO", "setting": "[1]; 10 uM", "value": 1.009}, {"measurement": "CMV-LACZ in Myotubes, signal relative to DMSO", "setting": "[1]; 20 uM", "value": 1.085}, {"measurement": "CMV-LACZ in Myotubes, signal relative to DMSO", "setting": "[1]; 40 uM", "value": 1.103}, {"measurement": "Burkin Assay in Myotubes, α7 integrin LacZ reporter signal relative to DMSO", "setting": "[2]; 0.5 uM", "value": 0.8925}, {"measurement": "Burkin Assay in Myotubes, α7 integrin LacZ reporter signal relative to DMSO", "setting": "[2]; 1 uM", "value": 0.9375}, {"measurement": "Burkin Assay in Myotubes, α7 integrin LacZ reporter signal relative to DMSO", "setting": "[2]; 5 uM", "value": 1.041}, {"measurement": "Burkin Assay in Myotubes, α7 integrin LacZ reporter signal relative to DMSO", "setting": "[2]; 10 uM", "value": 0.9696}, {"measurement": "Burkin Assay in Myotubes, α7 integrin LacZ reporter signal relative to DMSO", "setting": "[2]; 20 uM", "value": 1.3902}, {"measurement": "Burkin Assay in Myotubes, α7 integrin LacZ reporter signal relative to DMSO", "setting": "[2]; 40 uM", "value": 0.6262}, {"measurement": "Burkin Assay in Myoblasts, signal relative to DMSO", "setting": "[3]; 0.5 uM", "value": 1.032}, {"measurement": "Burkin Assay in Myoblasts, signal relative to DMSO", "setting": "[3]; 1 uM", "value": 0.8858}, {"measurement": "Burkin Assay in Myoblasts, signal relative to DMSO", "setting": "[3]; 5 uM", "value": 0.9547}, {"measurement": "Burkin Assay in Myoblasts, signal relative to DMSO", "setting": "[3]; 10 uM", "value": 0.9378}, {"measurement": "Burkin Assay in Myoblasts, signal relative to DMSO", "setting": "[3]; 20 uM", "value": 0.8133}, {"measurement": "Burkin Assay in Myoblasts, signal relative to DMSO", "setting": "[3]; 40 uM", "value": 0.9062}]}
